From the supplement of paper PMC4862054 come the findings set out here.

SMILES strings stand for the structures. Values joined by “and” are separate entries in the source; they are usually repeats but may differ in a detail not shown here. Equal entries are not always repeated.

Conditions in all cases: incubation time: 72 h
The test system of test [1] is Hs578T. The test is described as follows: normalised response (% of control), CellTox Green; higher = less cell death (100 = DMSO, 0 = benzethonium chloride kill control). The gist of the method:
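The table gives the normalised signal for a single concentration in each entry. Breast cancer cell lines were seeded (20 µl suspension) into 384-well plates holding compound at 5 concentrations in 10-fold steps over a compound-specific 10,000-fold range and incubated 72 h, then read for CellTox Green fluorescence (485/520 nm) and CellTiter-Glo luminescence. Normalisation on each plate used 0.1 % DMSO (100) and a positive kill control (0).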

In test [2] the test system is MDA-MB-231. The test is described as follows: normalised viability (% of control), CellTiter-Blue; higher = more viable cells (100 = DMSO, 0 = benzethonium chloride kill control). The method, then: (§1)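 DSRT, CellTiter-Blue viability, 72 h incubation. Signal is normalised to DMSO and benzethonium chloride controls. Value is the normalised response at dose 1.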
(In general: The colour change of resazurin is a common sign of viable cells or microbes.)

Test [3] deals with MDA-MB-453. Described as above. The method, then: as §1
Test [4] has as its system BT-474. Described as above. The method, then:
as §1

Test [5] relates to DU-4475. The test is described as above. The method, then:
as §1

Test [6] has as its system CAL-51. The description is as above. The method, then:
as §1

Test [7] concerns HCC1937. The test is described as above. The method, then:
as §1

In test [8] the test system is MDA-MB-468. The description is as above. The method, then: as §1
The test system of test [9] is Hs578T. The test is described as above. The method, then: as §1
Test [10] relates to CAL-148. Described as above. The method, then:
as §1

Test [11] concerns HDQ-P1. The test is described as above. The method, then: as §1
For test [12], the system named is MDA-MB-436. The description is as above. The method, then:
as §1

The test system of test [13] is SK-BR-3. The test is described as above. The method, then: as §1
For test [14], the system named is HCC1143. Described as above. The method, then:
as §1

Test [15] deals with HCC1599. Described as above. The method, then:
as §1

Test [16] relates to MFM-223. The description is as above. The method, then: as §1
In test [17] the test system is CAL-85-1. The description is as above. The method, then:
as §1

Test [18] has as its system CAL-120. Described as above. The method, then: as §1
The test system of test [19] is BT-549. Described as above. The method, then:
as §1

In the case of `Cc1ccc(Nc2nccc(N(C)c3ccc4c(C)n(C)nc4c3)n2)cc1S(N)(=O)=O` [Pazopanib] (10000 nM), the normalised response in [1] came to 77.2%.
`O=C(CCBr)N1CCN(C(=O)CCBr)CC1` [Pipobroman]: the normalised viability in test [2] (1 nM) came to 97.8%; in [3] (1 nM), 108%; in test [4] (1 nM), 98.9%; in [5] (1 nM), 111%; in test [6] (1 nM), 112%; in [7] (1 nM) it was 87.4%. Also, the normalised viability came out at 95% in test [8] (1 nM); 95.3% in test [9] (1 nM); 115% in test [10] (1 nM); 99.3% in test [11] (1 nM); 107% in [12] (1 nM); 92.1% in test [13] (1 nM). Also, the normalised viability in [14] (1 nM) worked out at 94.7%; in test [15] (1 nM), 103%; in test [16] (1 nM), 82.8%; in test [17] (1 nM) it was 96%; in test [18] (1 nM) it was 89.1%; in test [19] (1 nM), 83.2%.
On to `O=C(CCBr)N1CCN(C(=O)CCBr)CC1` [Pipobroman] (1000 nM), for which the normalised response in [1] came out at 91.2%.
In turn, `O=C(CCBr)N1CCN(C(=O)CCBr)CC1` [Pipobroman] (10000 nM) gave a normalised response in [1] of 128%.
In test [1], `C[C@]12C=CC(=O)C=C1CC[C@@H]1[C@@H]2[C@@H](O)C[C@@]2(C)[C@H]1CC[C@]2(O)C(=O)CO` [Prednisolone] (1000 nM) returned a normalised response of 104%.
Turning to `C[C@]12C=CC(=O)C=C1CC[C@@H]1[C@@H]2[C@@H](O)C[C@@]2(C)[C@H]1CC[C@]2(O)C(=O)CO` [Prednisolone] (10000 nM), in test [1], the normalised response amounted to 66.8%.
On to `CNC(=O)c1cc(Oc2ccc(NC(=O)Nc3ccc(Cl)c(C(F)(F)F)c3)cc2)ccn1` [Sorafenib], for which the normalised viability in test [2] (0.1 nM) is 92.8% and 93.4%; in test [3] (0.1 nM), 109% and 102%; in test [4] (0.1 nM) it was 109% and 85.3%; in test [5] (0.1 nM) it was 96.9% and 115%; in [6] (0.1 nM), 111% and 95.4%; in [7] (0.1 nM), 101% and 85.2%. For the same compound, the normalised viability is 113% and 99% in test [9] (0.1 nM); 112% and 109% in test [10] (0.1 nM); 88% and 95.8% in test [12] (0.1 nM); 103% and 90.7% in test [13] (0.1 nM); 109% and 96% in test [14] (0.1 nM); 106% and 123% in test [15] (0.1 nM). Besides, the normalised viability in test [16] (0.1 nM) is 102% and 105%; in test [17] (0.1 nM), 104% and 103%; in test [18] (0.1 nM), 97.8% and 95.4%; in test [19] (0.1 nM), 119% and 96%.
As to `CNC(=O)c1cc(Oc2ccc(NC(=O)Nc3ccc(Cl)c(C(F)(F)F)c3)cc2)ccn1` [Sorafenib] (1000 nM), the normalised response in test [1] was 118%.
In the case of `CCN(CC)CCNC(=O)c1c(C)[nH]c(/C=C2\C(=O)Nc3ccc(F)cc32)c1C` [Sunitinib], the normalised viability in test [2] (0.1 nM) was 82.2% and 85.6%; in test [3] (0.1 nM), 99.7% and 100%; in test [4] (0.1 nM), 81% and 89.3%; in [5] (0.1 nM), 101% and 89.2%; in test [6] (0.1 nM), 111% and 96%; in test [7] (0.1 nM) it was 91.7% and 88.2%. Further, the normalised viability in test [8] (0.1 nM) is 94.7% and 98.5%; in test [9] (0.1 nM), 104% and 115%; in test [10] (0.1 nM) it was 104% and 107%; in test [11] (0.1 nM), 100% and 93.2%; in [12] (0.1 nM) it was 98.4% and 105%; in [13] (0.1 nM), 94.2% and 93.7%. Besides, the normalised viability was 112% and 101% in [15] (0.1 nM); 99.6% and 109% in [16] (0.1 nM); 89.3% and 104% in test [17] (0.1 nM); 87.1% and 85% in [19] (0.1 nM).
As to `CCN(CC)CCNC(=O)c1c(C)[nH]c(/C=C2\C(=O)Nc3ccc(F)cc32)c1C` [Sunitinib] (100 nM), the normalised response in test [1] is 77%.
For `CCN(CC)CCNC(=O)c1c(C)[nH]c(/C=C2\C(=O)Nc3ccc(F)cc32)c1C` [Sunitinib] (1000 nM), in [1], the normalised response was 95.9%.
Compound `CC[C@@]1(O)C(=O)OCc2c1cc1n(c2=O)Cc2cc3c(CN(C)C)c(O)ccc3nc2-1` [Topotecan] (100 nM) returned a normalised response in [1] of 98.7%.
